Results from US20130156750A1, “Compositions and Methods for Using Human YKL-40 to Treat Acute Lung Injury” (YALE UNIVERSITY, priority 2010, published 2013).

Assays:
BEAS-2B cells = test: In vitro oxygen exposure of BEAS-2B cells, YKL-40 expression by real-time RT-PCR; format: cell-based, human; details: 95% O2, pretreatment 10 mM 1 hour before oxygen exposure, FIG. 1G
Procedure: mRNA levels were assessed by real-time reverse transcriptase-polymerase chain reaction, as previously described. […] The sequences for the primers that were used were obtained from Primer Bank online (pga.mgh.harvard.edu/primerbank) Human bronchial epithelial cell line BEAS-2B cells (ATCC, Rockville, Md.) were incubated in complete bronchial epithelial basal medium (Lonza, Walkersville, Md.). They were placed in an airtight modular incubator chamber (Billups-Rothenberg, Del Mar, Calif.), which had been flushed continuously with 95% O2/5% CO2 until the oxygen level inside the chamber reached approximately 95%. The incubator chamber was then placed in a tissue culture incubator at 37° C., the O2 inside the chamber was replaced every 24 hours, and the cells were harvested at the desired time points (24-72 h). The responses in these cells were compared with events in cells incubated in 5% CO2 and air. In select experiments, the cells were incubated with N-acetyl-L-cysteine (Sigma, St. Louis, Mo.), which was added at a dose of 10 mM 1 hour before oxygen exposure, or its vehicle control.

mice exposed to 100% O2 = test: Hyperoxic acute lung injury (100% O2 exposure) in mice; format: in vivo
Excerpt: BRP-39^−/− mice were generated and used as previously described (Lee et al., 2009, J Exp Med 206; 1149-1166). The mice were generated on a mixed 129/C57BL/6 background and subsequently bred for more than 10 generations onto a C57BL/6 background. Transgenic mice in which human YKL-40 was tightly and inducibly overexpressed (CC10-rtTA-tTS-YKL-40) in a lung-specific manner were generated with constructs and approaches that have been previously described. (Lee et al., 2009, J Exp Med 206:1149-1166). Mice that lacked BRP-39 and produced YKL-40 only in pulmonary epithelial cells (CC10-rtTA-tTS-YKL-40/BRP-39^−/−) were generated by breeding the CC10-rtTA-tTS-YKL-40 and BRP-39^−/− mice. Mice with caspase-3-null mutations were kindly provided by Dr. Flavell (Dept. of Immunobiology, Yale University School of Medicine). Animal protocols were approved by the Yale University Institutional Animal Care and Use Committee, the guidelines of which were followed for all experiments.
Mice (4-6 wk old) were placed in cages in an airtight Plexiglas chamber (55×40×50 cm), as described previously (Waxman et al., 1998, J Clin Invest 101:1970-1982; Ward et al., 2000, Am J Respir Cell Mol Biol 22:535-542; Wang et al., 2003, J Biol Chem 278:31226-31232). Throughout the experiment, they were given free access to food and water. Oxygen levels were constantly monitored by an oxygen sensor, which was connected to a relay switch incorporated into the oxygen supply circuit. The inside of the chamber was kept at atmospheric pressure, and mice were exposed to a 12-hour light-dark cycle. […]
Bronchoalveolar lavage (BAL; 50 μg) fluids and/or lung lysates were subjected to immunoblot analysis with antibodies against inhibitor of caspase-activated deoxyribonuclease (Chemicon International, Billerica, Mass.), caspase-3 (Cell Signaling Technology, Danvers, Mass.) or β-tubulin (Santa Cruz Biotechnology, Inc.), and the polyclonal rabbit antiserum against BRP-39, as noted above. These samples were fractionated by polyacrylamide gel electrophoresis, transferred to membranes, and evaluated as described previously (Kang et al., 2007, J Exp Med 204:1083-1093).
The levels of BRP-39 in BAL or lung lysates were evaluated by ELISA with an anti-BRP-39 rabbit polyclonal IgG for capture and biotinylated anti-BRP-39, followed by horseradish peroxidase-labeled streptavidin (GE Healthcare, Piscataway, N.J.) for detection. […] The levels of BAL fluid CXCL-1 and CCL-2 were measured by ELISA with commercial kits (R&D Systems, Minneapolis, Minn.), as directed by the manufacturer.
DNA fragmentation and cell death were evaluated with terminal deoxynucleotidyl transferase-mediated dUTP nick end labeling (TUNEL) assays, as previously described. […]

Compound | effect on hyperoxia inhibition of YKL-40 expression (BEAS-2B cells) | survival in 100% oxygen (mice exposed to 100% O2; BRP-39−/− mice with epithelial-targeted transgenic YKL-40 (CC10-rtTA-tTS-YKL-40/BRP-39−/−), FIG. 5A) | augmented hyperoxia-induced responses (permeability, protein leak, tissue and BAL inflammation, KC/CXCL-1 and MCP-1/CCL2, TUNEL-positive cell death, caspase-3 activation) (mice exposed to 100% O2; BRP-39−/− mice with epithelial-targeted transgenic YKL-40, 100% O2, FIGS. 5B-5H) | survival in 100% O2 (mice exposed to 100% O2; CC10-rtTA-tTS-YKL-40 mice on WT genetic background, FIG. 5I) | alveolar capillary permeability alterations, protein leak, tissue and BAL inflammation, KC/CXCL-1 and MCP-1/CCL2 production, TUNEL-positive cell death, caspase-3 activation (mice exposed to 100% O2; YKL-40 Tg animals on WT genetic background, 100% O2, FIGS. 5B-5H)
CC(=O)N[C@@H](CS)C(=O)O [N-acetyl-L-cysteine] | abrogated the YKL-40-inhibiting effects of hyperoxia | – | – | – | –
YKL-40: human homolog of BRP-39, chitinase-like protein; inducibly overexpressed as a transgene in mouse lung epithelium | – | enhanced the survival | restored to levels comparable to those in WT animals | enhanced | diminished
